Peptide text beside a SMILES is read from it. * marks the point of attachment. βNA = c1ccc2cc(N*)ccc2c1
How the values were obtained:
[1] = tested on: Wild-type (E. coli BW 25113); assay: MIC, efflux-pump wild-type; format: cell-based; details: Escherichia coli; Wild-type (E. coli BW 25113); read-out: MIC Values
Experimental: (§1) A variety of Gram-negative reference strains (E. coli ATCC 25922, E. coli ATCC 10763, P. aeruginosa PAO1, P. aeruginosa ATCC 27853, A. baumannii ATCC 12457, A. baumannii ATCC 19606, K. pneumoniae ATCC 4352 and K. pneumoniae ATCC 33495) were used for initial screening and combination testing with PMB. The organisms were speciated using biochemical testing and MALDI-TOF mass spectrometry (Bruker, Preston, VIC, Australia). Activity testing of NCL259 and NCL265 was also carried out on 51 extraintestinal clinical E. coli isolates from companion animals, and 83 porcine and bovine enterotoxigenic E. coli (ETEC) isolates from the Australian Centre for Antimicrobial Resistance Ecology collection. E. coli wild-type (BW 25113) and its mutant BW 25113∆AcrB, in which the inner membrane component AcrB of the tripartite multidrug efflux system AcrA/AcrB/TolC has been deleted, were obtained from the bacterial collection held at Health and Biomedical Innovation, Clinical and Health Sciences, The University of South Australia. All isolates were cultured on sheep blood agar (SBA) plates at 37 °C for 18 h before being subcultured into Luria Bertaini (LB) (Oxoid, Scoresby, VIC, Australia) broth and grown to A600nm = 0.5 (equivalent to approx. 1.5 × 10^8 colony-forming units (CFU)/mL).
MICs for NCL259 and NCL265 (serial two-fold dilutions commencing at 256 µg/mL) were determined (in duplicate) in round bottom 96–well microtitre trays (Sarstedt 82.1582.001), using the broth micro-dilution method recommended by the Clinical and Laboratory Standards Institute (CLSI). We have shown previously that robenidine can chelate calcium ions from cation-adjusted Mueller-Hinton broth, which causes the loss of activity of robenidine. Therefore, LB broth was used in this study. […] The MIC for ampicillin against each isolate was determined for each test to serve as an internal quality control. The MICs of isolates were determined by visual reading and using an EnSpire Multimode Plate Reader 2300 at A600nm.

[2] = tested on: E. coli BW 25113 (∆AcrB); assay: MIC, efflux-pump mutant; format: cell-based, Escherichia coli; details: Escherichia coli, read-out: MIC Values
Experimental: as §1
(§2) MICs for NCL259 and NCL265 (serial two-fold dilutions commencing at 256 µg/mL) were determined (in duplicate) in round bottom 96–well microtitre trays (Sarstedt 82.1582.001), using the broth micro-dilution method recommended by the Clinical and Laboratory Standards Institute (CLSI). We have shown previously that robenidine can chelate calcium ions from cation-adjusted Mueller-Hinton broth, which causes the loss of activity of robenidine. Therefore, LB broth was used in this study. Additionally, considering the low solubility of robenidine and its analogues in aqueous solutions, two-fold serial dilutions of stock solutions of these compounds were prepared in 100% DMSO [21]. The MIC for ampicillin against each isolate was determined for each test to serve as an internal quality control. The MICs of isolates were determined by visual reading and using an EnSpire Multimode Plate Reader 2300 at A600nm.

[3] = tested on: K. oxytoca 13GNB–582; assay: Checkerboard assay with PAβN; format: cell-based; details: for concentration at the marked interaction: resazurin
Experimental: (§3) MICs of NCL259 or NCL265 in the presence of the efflux pump inhibitor, PAβN were determined using a checkerboard assay. […] Briefly, a two-fold serial dilution of each antimicrobial solution was prepared in its appropriate solvent (e.g., DMSO for robenidine analogues and Milli-Q water for PAβN), and 1 μL of each dilution was added from wells 12 to 3 (12.8–0.25 μg/mL for robenidine analogues, and 32–2 μg/mL for PAβN). Thereafter, 89 μL of LB broth was added to each well followed by the addition of 10 μL of bacterial suspension (1–5 × 10^6 CFU/mL) to each well. In this manner, the final concentration of DMSO in each well was 1%. The plate was subsequently incubated at 37 °C for 24 h. The resazurin assay was used for assessment of drug susceptibility of NCL259 and NCL265 (Supplementary Table S1–S6). The same method was also used to test the MICs of NCL259 or NCL265 in the presence of PMB against a range of Gram-negative reference strains (E. coli ATCC 25922, E. coli ATCC 10763, P. aeruginosa PAO1, P. aeruginosa ATCC 27853, A. baumannii ATCC 12457, A. baumannii ATCC 19606, K. pneumoniae ATCC 4352 and K. pneumoniae ATCC 33495). Stock solutions were prepared prior to use (25.6–0.25 mg/mL for robenidine analogues; 12.8–0.25 mg/mL for PMB). The interaction of two antibiotics was calculated as the fractional inhibitory concentration index (FICI) using the following formula:(1) FICI=MICA in combination/MICA alone+MICB in combination/MICB alone where A is NCL259 or NCL265 and B is PAβN or PMB. According to FICI calculations, the interaction between two compounds were interpreted as follows: synergistic (FICI ≤ 0.5); additive or partially synergistic (0.5 < FICI ≤ 1); indifferent (1 < FICI ≤ 4); and antagonistic (FICI > 4), as described previously. The dose reduction index (DRI) was used to describe the difference between the effective doses of NCL259 or NCL265 in combination with PMB or PAβN in comparison to their individual doses, using the following formula:(2) DRI=MICA alone/MICA in combination
(§4) Evaluation of DRI is important clinically because it can allow the dose of a potentially toxic drug to be lowered in combination with another compound without reducing the drug’s efficacy. A DRI higher than 1 is viewed as beneficial.

[4] = tested on: K. pneumoniae 13GNB–429; assay: Checkerboard assay with PAβN; format: cell-based, Klebsiella pneumoniae; details: for concentration at the marked interaction: resazurin
Experimental: as §3, §4

[5] = tested on: K. pneumoniae 13GNB–550; assay: Checkerboard assay with PAβN; format: cell-based, Klebsiella pneumoniae; details: for concentration at the marked interaction: resazurin
Experimental: as §3, §4

[6] = tested on: K. pneumoniae 13GNB–429; assay: MIC, broth micro-dilution; format: cell-based; details: Klebsiella pneumoniae, read-out: MIC, Single Drug
Experimental: as §2, §3

[7] = tested on: K. pneumoniae 13GNB–550; assay: MIC, broth micro-dilution; format: cell-based; details: Klebsiella pneumoniae, read-out: MIC, Single Drug
Experimental: as §2, §3

[8] = tested on: K. oxytoca 13GNB–582; assay: MIC, broth micro-dilution; format: cell-based; details: Klebsiella oxytoca, read-out: MIC, Single Drug
Experimental: as §2, §3

[9] = tested on: P. aeruginosa ATCC 27853; assay: MIC, broth micro-dilution; format: cell-based, Pseudomonas aeruginosa
Experimental: as §1, §2

[10] = tested on: P. aeruginosa PAO1; assay: MIC, broth micro-dilution; format: cell-based, Pseudomonas aeruginosa
Experimental: as §1, §2

[11] = tested on: K. pneumoniae ATCC 4352; assay: MIC, broth micro-dilution; format: cell-based, Klebsiella pneumoniae
Experimental: as §1, §2

[12] = tested on: K. pneumoniae ATCC 33495; assay: MIC, broth micro-dilution; format: cell-based, Klebsiella pneumoniae; details: K. pneumoniae ATCC 33495
Experimental: as §1, §2

[13] = tested on: A. baumannii ATCC 12457; assay: MIC, broth micro-dilution; format: cell-based, Acinetobacter baumannii
Experimental: as §1, §2

[14] = tested on: A. baumannii ATCC 19606; assay: MIC, broth micro-dilution; format: cell-based, Acinetobacter baumannii
Experimental: as §1, §2

[15] = tested on: P. aeruginosa ATCC 27853; assay: Checkerboard assay with PMB; format: cell-based, Pseudomonas aeruginosa
Experimental: as §3, §4

[16] = tested on: P. aeruginosa PAO1; assay: Checkerboard assay with PMB; format: cell-based, Pseudomonas aeruginosa
Experimental: as §3, §4

[17] = tested on: E. coli ATCC 25922; assay: Checkerboard assay with PMB; format: cell-based, Escherichia coli
Experimental: as §3, §4

[18] = tested on: E. coli ATCC 10763; assay: Checkerboard assay with PMB; format: cell-based, Escherichia coli
Experimental: as §3, §4

[19] = tested on: K. pneumoniae ATCC 4352; assay: Checkerboard assay with PMB; format: cell-based, Klebsiella pneumoniae
Experimental: as §3, §4

[20] = tested on: K. pneumoniae ATCC 33495; assay: Checkerboard assay with PMB; format: cell-based, Klebsiella pneumoniae
Experimental: as §3, §4

[21] = tested on: A. baumannii ATCC 12457; assay: Checkerboard assay with PMB; format: cell-based, Acinetobacter baumannii
Experimental: as §3, §4

[22] = tested on: A. baumannii ATCC 19606; assay: Checkerboard assay with PMB; format: cell-based, Acinetobacter baumannii
Experimental: as §3, §4

[23] = tested on: E. coli ATCC 25922; assay: MIC, broth micro-dilution; format: cell-based, Escherichia coli
Experimental: as §1, §2

[24] = tested on: E. coli ATCC 10763; assay: MIC, broth micro-dilution; format: cell-based, Escherichia coli; details: E. coli ATCC 10763
Experimental: as §1, §2

## CC[C@H]1OC(=O)[C@H](C)[C@@H](O[C@H]2C[C@@](C)(OC)[C@@H](O)[C@H](C)O2)[C@H](C)[C@@H](O[C@@H]2O[C@H](C)C[C@H](N(C)C)[C@H]2O)[C@](C)(O)C[C@@H](C)C(=O)[C@H](C)[C@@H](O)[C@]1(C)O [Erythromycin, reference compound]
[1]
  MIC: > 128 µg/mL
[2]
  MIC: 2 µg/mL

## NC(N)=NCCC[C@H](NC(=O)[C@@H](N)Cc1ccccc1)C(=O)Nc1ccc2ccccc2c1 [PAβN, phenylalanine-arginine-beta-naphthylamide, reference compound] (H-Phe-Arg-βNA)
[3]; K. oxytoca 13GNB–582
  DRI PAβN:NCL259: 4
  DRI PAβN:NCL265: 2
[3]; K. oxytoca 13GNB–582, PAβN + NCL259
  MIC, Combination: 16 µg/mL
[3]; K. oxytoca 13GNB–582, PAβN + NCL265
  MIC, Combination: 32 µg/mL
[3]; Table S3, NCL259 + PAβN, replicate 1
  concentration at the marked interaction: 8 µg/mL
[3]; Table S3, NCL259 + PAβN, replicate 2
  concentration at the marked interaction: 8 µg/mL
[3]; Table S6, NCL265 + PAβN, replicate 1
  concentration at the marked interaction: 8 µg/mL
[3]; Table S6, NCL265 + PAβN, replicate 2
  concentration at the marked interaction: 8 µg/mL
[4]; K. pneumoniae 13GNB–429
  DRI PAβN:NCL259: 4
  DRI PAβN:NCL265: 2
[4]; K. pneumoniae 13GNB–429, PAβN + NCL259
  MIC, Combination: 16 µg/mL
[4]; K. pneumoniae 13GNB–429, PAβN + NCL265
  MIC, Combination: 32 µg/mL
[4]; Table S1, NCL259 + PAβN, replicate 1
  concentration at the marked interaction: 8 µg/mL
[4]; Table S1, NCL259 + PAβN, replicate 2
  concentration at the marked interaction: 8 µg/mL
[4]; Table S4, NCL265 + PAβN, replicate 1
  concentration at the marked interaction: 8 µg/mL
[4]; Table S4, NCL265 + PAβN, replicate 2
  concentration at the marked interaction: 4 µg/mL
[5]; K. pneumoniae 13GNB–550
  DRI PAβN:NCL259: 2
  DRI PAβN:NCL265: 2
[5]; K. pneumoniae 13GNB–550, PAβN + NCL259
  MIC, Combination: 32 µg/mL
[5]; K. pneumoniae 13GNB–550, PAβN + NCL265
  MIC, Combination: 32 µg/mL
[5]; Table S2, NCL259 + PAβN, replicate 1
  concentration at the marked interaction: 16 µg/mL
[5]; Table S2, NCL259 + PAβN, replicate 2
  concentration at the marked interaction: 8 µg/mL
[5]; Table S5, NCL265 + PAβN, replicate 1
  concentration at the marked interaction: 8 µg/mL
[5]; Table S5, NCL265 + PAβN, replicate 2
  concentration at the marked interaction: 8 µg/mL
[6]
  MIC: > 32 µg/mL
[7]
  MIC: > 32 µg/mL
[8]
  MIC: > 32 µg/mL

## polymyxin B [PMB, reference compound]
[9]
  MIC, Single Drug: 1 µg/mL
[10]
  MIC, Single Drug: 1 µg/mL
[11]
  MIC, Single Drug: 1 µg/mL
[12]
  MIC, Single Drug: 1 µg/mL
[13]
  MIC, Single Drug: 1 µg/mL
[14]
  MIC, Single Drug: 1 µg/mL
[15]; NCL259 or NCL265 with PMB
  MIC, Combination: 0.5 µg/mL
[15]; PMB + NCL259
  Dose Reduction Index (DRI) PMB:NCL259: 2
[15]; PMB + NCL265
  Dose Reduction Index (DRI) PMB:NCL265: 2
[16]; NCL259 or NCL265 with PMB
  MIC, Combination: 0.5 µg/mL
[16]; PMB + NCL259
  Dose Reduction Index (DRI) PMB:NCL259: 2
[16]; PMB + NCL265
  Dose Reduction Index (DRI) PMB:NCL265: 2
[17]; NCL259 or NCL265 with PMB
  MIC, Combination: 0.25 µg/mL
[17]; PMB + NCL259
  Dose Reduction Index (DRI) PMB:NCL259: 2
[17]; PMB + NCL265
  Dose Reduction Index (DRI) PMB:NCL265: 2
[18]; PMB + NCL259
  Dose Reduction Index (DRI) PMB:NCL259: 2
[18]; PMB + NCL265
  Dose Reduction Index (DRI) PMB:NCL265: 4
[19]; NCL259 or NCL265 with PMB
  MIC, Combination: 0.25 µg/mL
[19]; PMB + NCL259
  Dose Reduction Index (DRI) PMB:NCL259: 4
[19]; PMB + NCL265
  Dose Reduction Index (DRI) PMB:NCL265: 4:4
[20]; PMB + NCL259
  Dose Reduction Index (DRI) PMB:NCL259: 2
[20]; PMB + NCL265
  Dose Reduction Index (DRI) PMB:NCL265: 4
[21]; NCL259 or NCL265 with PMB
  MIC, Combination: 0.5 µg/mL
[21]; PMB + NCL259
  Dose Reduction Index (DRI) PMB:NCL259: 2
[21]; PMB + NCL265
  Dose Reduction Index (DRI) PMB:NCL265: 2
[22]; NCL259 or NCL265 with PMB
  MIC, Combination: 0.5 µg/mL
[22]; PMB + NCL259
  Dose Reduction Index (DRI) PMB:NCL259: 2
[22]; PMB + NCL265
  Dose Reduction Index (DRI) PMB:NCL265: 2
[23]
  MIC, Single Drug: 0.5 µg/mL
[24]
  MIC, Single Drug: 1 µg/mL

Source: paper PMC9598656, “In Vitro Activity of Robenidine Analogues NCL259 and NCL265 against Gram-Negative Pathogens” (Antibiotics, 2022)
